Experimental data: patent US11034672B1, “Tyrosine kinase inhibitor compositions, methods of making and methods of use” (Black Diamond Therapeutics, Inc., priority 2018, dated 2021)

How the values were obtained:
Format in all cases: cell-based
HER2 YVMA [1] = target: T1, HER2 YVMA (Homo sapiens, UniProt P04626, INS775YVMA); assay: Activity for inhibiting HER2 (Table B), HER2 YVMA; conditions: read-out: HER2 YVMA, potency code (IC50)
T1 construct: expressed in transfected cells; host or cells: BaF3 (murine pro-B)
Procedure: (§1) EC50 values were determined with the same application.

EGFR V3 [2] = target: T2, EGFR V3 (Homo sapiens, UniProt P00533, DELINS30-297G); assay: Activity for inhibiting EGFR (Table A), EGFR V3 (EGFR-Viii); conditions: read-out: EGFR V3, potency code (IC50)
T2 construct: expressed in transfected cells; host or cells: BaF3 (murine pro-B), retroviral pMXs-IRES-Blasticidin

EGFR WT [3] = target: T3, EGFR WT (Homo sapiens, UniProt P00533); assay: BaF3 cell proliferation assay, EGFR WT (Table A); conditions: potency code, 3 days, CellTiterGlo, read-out: EGFR WT (Activity for Inhibiting EGFR)
In short: (§2)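 Proliferation read-out is used in BaF3 cells engineered to express each EGFR or HER2 form; EC50 is derived from it. Transduced populations are selected with Blasticidin, washed in PBS and cultured without IL-3.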

HER2 S310F [4] = target: T4, HER2 S310F (Homo sapiens, UniProt P04626, S310F); assay: Activity for inhibiting HER2 (Table B), HER2 S310F; conditions: read-out: HER2 S310F, potency code (IC50)
T4 construct: expressed in transfected cells; host or cells: BaF3 (murine pro-B)
Procedure: as §1

HER2 YVMA [5] = target: T1, HER2 YVMA; assay: BaF3 cell proliferation assay, HER2 YVMA (Table B); conditions: potency code, 3 days, CellTiterGlo, read-out: HER2 YVMA (Activity for Inhibiting HER2)
HER2 S310F [6] = target: T4, HER2 S310F; assay: BaF3 cell proliferation assay, HER2 S310F (Table B); conditions: potency code, 3 days, CellTiterGlo, read-out: HER2 S310F (Activity for Inhibiting HER2)
EGFR V3 [7] = target: T2, EGFR V3; assay: BaF3 cell proliferation assay, EGFR V3 (Table A); conditions: potency code, 3 days, CellTiterGlo, read-out: EGFR V3 (Activity for Inhibiting EGFR)
In short: as §2

EGFR WT [8] = target: T3, EGFR WT; assay: Activity for inhibiting EGFR (Table A), EGFR WT; conditions: read-out: EGFR WT, potency code (IC50)

T3 sequence (P00533 25-1210 N540K): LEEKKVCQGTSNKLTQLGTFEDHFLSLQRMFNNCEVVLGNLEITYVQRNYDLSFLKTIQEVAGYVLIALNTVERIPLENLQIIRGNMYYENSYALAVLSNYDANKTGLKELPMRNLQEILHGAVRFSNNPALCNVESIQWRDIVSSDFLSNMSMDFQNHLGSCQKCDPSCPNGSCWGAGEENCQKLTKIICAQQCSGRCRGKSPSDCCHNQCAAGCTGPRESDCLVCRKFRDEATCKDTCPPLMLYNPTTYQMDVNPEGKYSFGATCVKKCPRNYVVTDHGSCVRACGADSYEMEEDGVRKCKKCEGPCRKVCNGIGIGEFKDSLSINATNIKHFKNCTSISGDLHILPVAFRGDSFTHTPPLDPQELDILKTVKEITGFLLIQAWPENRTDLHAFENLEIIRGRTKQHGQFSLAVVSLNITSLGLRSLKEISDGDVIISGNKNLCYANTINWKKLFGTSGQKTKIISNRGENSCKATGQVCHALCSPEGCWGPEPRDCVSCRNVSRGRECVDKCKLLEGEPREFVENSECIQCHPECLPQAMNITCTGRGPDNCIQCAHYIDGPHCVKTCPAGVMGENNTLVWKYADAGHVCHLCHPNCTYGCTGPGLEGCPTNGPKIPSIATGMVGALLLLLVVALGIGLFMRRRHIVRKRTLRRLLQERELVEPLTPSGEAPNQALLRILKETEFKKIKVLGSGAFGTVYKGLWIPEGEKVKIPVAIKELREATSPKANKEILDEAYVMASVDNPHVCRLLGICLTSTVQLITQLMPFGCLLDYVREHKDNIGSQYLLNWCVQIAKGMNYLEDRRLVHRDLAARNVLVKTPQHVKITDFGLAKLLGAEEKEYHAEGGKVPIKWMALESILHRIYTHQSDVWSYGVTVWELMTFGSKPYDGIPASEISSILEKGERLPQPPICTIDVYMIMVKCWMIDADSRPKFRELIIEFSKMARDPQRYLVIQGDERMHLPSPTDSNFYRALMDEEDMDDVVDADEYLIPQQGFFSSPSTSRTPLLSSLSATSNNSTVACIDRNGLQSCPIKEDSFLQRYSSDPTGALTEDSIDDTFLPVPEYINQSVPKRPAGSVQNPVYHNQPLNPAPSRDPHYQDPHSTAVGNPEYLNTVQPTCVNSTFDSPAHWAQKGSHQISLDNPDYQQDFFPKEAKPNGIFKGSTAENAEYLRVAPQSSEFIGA
T2 sequence (P00533 with tags, fused parts or gaps DELINS30-297G): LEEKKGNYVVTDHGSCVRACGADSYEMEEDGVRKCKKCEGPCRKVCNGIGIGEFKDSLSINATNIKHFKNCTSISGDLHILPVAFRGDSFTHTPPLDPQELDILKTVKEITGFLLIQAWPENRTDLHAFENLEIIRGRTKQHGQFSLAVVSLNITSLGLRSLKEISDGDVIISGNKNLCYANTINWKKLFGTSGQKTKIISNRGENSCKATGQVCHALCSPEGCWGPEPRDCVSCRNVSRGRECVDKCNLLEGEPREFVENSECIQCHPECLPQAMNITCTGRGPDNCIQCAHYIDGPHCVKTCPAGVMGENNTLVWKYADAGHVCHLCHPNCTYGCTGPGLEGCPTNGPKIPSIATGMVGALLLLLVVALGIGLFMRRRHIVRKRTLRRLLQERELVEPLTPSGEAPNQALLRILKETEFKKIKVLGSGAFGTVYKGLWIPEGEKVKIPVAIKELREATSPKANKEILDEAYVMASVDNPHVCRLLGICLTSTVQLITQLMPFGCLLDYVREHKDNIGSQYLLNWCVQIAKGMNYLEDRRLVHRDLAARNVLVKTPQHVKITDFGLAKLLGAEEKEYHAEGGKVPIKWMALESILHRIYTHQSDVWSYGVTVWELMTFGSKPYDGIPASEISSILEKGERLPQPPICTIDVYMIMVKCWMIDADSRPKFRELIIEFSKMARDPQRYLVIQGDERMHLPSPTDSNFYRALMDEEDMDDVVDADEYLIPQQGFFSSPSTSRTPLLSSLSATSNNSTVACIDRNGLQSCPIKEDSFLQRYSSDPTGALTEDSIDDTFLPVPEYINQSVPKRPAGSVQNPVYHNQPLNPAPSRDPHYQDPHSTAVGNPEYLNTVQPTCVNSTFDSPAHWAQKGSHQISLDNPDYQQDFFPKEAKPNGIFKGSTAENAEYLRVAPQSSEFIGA
T1 sequence (P04626 with tags, fused parts or gaps INS775YVMA): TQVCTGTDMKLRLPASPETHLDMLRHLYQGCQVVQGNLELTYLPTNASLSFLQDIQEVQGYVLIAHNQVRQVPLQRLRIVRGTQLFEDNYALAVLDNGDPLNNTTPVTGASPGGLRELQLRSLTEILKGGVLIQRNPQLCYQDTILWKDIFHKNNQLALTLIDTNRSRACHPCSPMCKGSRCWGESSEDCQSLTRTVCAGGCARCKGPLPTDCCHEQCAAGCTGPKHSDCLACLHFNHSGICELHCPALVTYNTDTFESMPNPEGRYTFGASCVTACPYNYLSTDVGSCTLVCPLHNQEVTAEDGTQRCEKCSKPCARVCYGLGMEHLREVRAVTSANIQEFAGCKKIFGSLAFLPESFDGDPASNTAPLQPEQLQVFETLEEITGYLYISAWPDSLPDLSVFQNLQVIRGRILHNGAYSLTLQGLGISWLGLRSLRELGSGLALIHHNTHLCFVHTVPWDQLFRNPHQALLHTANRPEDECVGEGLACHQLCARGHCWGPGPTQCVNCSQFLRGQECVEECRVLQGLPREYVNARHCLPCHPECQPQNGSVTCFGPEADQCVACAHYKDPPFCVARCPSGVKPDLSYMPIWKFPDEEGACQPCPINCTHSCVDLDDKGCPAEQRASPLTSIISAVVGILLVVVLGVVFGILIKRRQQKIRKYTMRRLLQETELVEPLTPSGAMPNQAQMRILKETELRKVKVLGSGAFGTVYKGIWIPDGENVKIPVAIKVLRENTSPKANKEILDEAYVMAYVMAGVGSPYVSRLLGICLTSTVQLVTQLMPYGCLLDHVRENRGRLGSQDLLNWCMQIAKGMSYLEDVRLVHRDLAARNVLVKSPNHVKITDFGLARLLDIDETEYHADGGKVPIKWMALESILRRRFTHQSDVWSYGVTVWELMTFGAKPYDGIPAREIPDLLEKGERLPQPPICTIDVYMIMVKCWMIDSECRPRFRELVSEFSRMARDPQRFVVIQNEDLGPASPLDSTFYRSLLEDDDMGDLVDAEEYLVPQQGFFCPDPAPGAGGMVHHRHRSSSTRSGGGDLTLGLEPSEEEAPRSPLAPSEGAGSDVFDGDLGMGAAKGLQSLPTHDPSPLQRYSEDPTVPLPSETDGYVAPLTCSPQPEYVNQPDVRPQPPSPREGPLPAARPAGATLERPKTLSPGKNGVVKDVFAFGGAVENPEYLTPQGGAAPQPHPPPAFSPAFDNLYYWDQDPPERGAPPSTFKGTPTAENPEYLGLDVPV
T4 sequence (P04626 23-1255 S310F): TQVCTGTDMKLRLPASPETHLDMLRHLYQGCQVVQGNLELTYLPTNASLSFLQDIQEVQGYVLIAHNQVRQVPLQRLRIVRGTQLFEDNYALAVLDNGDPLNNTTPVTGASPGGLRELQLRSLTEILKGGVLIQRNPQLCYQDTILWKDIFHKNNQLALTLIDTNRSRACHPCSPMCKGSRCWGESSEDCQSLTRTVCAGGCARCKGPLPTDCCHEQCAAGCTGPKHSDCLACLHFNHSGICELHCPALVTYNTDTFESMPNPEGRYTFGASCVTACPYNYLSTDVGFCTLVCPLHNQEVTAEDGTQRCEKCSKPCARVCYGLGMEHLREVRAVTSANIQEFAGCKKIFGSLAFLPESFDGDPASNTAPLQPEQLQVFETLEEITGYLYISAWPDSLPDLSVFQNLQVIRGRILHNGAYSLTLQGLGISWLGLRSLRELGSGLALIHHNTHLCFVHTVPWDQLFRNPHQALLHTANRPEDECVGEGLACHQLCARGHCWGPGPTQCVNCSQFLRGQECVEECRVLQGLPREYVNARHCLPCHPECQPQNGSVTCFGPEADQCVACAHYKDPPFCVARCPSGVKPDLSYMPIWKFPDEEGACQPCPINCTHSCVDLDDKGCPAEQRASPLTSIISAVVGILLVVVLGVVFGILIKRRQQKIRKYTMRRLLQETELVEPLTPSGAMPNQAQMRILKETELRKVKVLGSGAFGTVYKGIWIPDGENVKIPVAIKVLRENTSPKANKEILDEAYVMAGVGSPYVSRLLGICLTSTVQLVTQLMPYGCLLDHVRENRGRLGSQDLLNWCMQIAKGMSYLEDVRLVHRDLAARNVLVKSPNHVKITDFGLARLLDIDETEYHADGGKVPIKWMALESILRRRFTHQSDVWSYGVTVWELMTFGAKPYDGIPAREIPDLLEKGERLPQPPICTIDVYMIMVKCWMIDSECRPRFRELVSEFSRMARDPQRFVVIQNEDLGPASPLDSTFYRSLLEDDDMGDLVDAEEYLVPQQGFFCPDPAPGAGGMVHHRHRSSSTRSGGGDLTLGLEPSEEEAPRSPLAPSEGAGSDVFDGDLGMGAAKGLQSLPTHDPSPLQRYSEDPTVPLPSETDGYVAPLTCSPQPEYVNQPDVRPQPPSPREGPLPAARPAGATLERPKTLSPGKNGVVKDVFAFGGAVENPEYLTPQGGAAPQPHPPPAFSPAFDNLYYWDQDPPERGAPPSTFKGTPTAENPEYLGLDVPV

Structure (SMILES)	IC50 (HER2 YVMA [1]) [µM]	IC50 (EGFR V3 [2]) [µM]	IC50 (EGFR WT [3]) [µM]	IC50 (HER2 S310F [4]) [µM]	IC50 (HER2 YVMA [5]) [µM]	IC50 (HER2 S310F [6]) [µM]	IC50 (EGFR V3 [7]) [µM]	IC50 (EGFR WT [8]) [µM]
C=CC(=O)Nc1cc2c(Nc3ccc(OCc4cccc(C)n4)c(Cl)c3)ncnc2cc1OCCCN1CC(OC)C1 [compound 138]	0.05 to 0.1	0.05 to 0.1	0.1 to 0.2	0.03 to 0.05	0.05 to 0.1	0.03 to 0.05	0.05 to 0.1	0.1 to 0.2
C=CC(=O)Nc1cc2c(Nc3ccc(OCc4cccc(F)c4)c(Cl)c3)ncnc2cc1OCCN1CC2CCC(C1)O2 [compound 139]	0.1 to 0.2	0.1 to 0.2	0.5 to 1	0.03 to 0.05	0.1 to 0.2	0.03 to 0.05	0.1 to 0.2	0.5 to 1
C=CC(=O)Nc1cc2c(Nc3ccc(OCc4cccc(C)n4)c(Cl)c3)ncnc2cc1O[C@@H]1CCN(C)C1 [compound 140]	0.3 to 0.5	0.1 to 0.2	0.3 to 0.5	0.1 to 0.2	0.3 to 0.5	0.1 to 0.2	0.1 to 0.2	0.3 to 0.5
C=CC(=O)Nc1cc2c(Nc3ccc(OCc4cccc(F)c4)c(Cl)c3)ncnc2cc1O[C@@H]1CCN(C)C1 [compound 141]	0.3 to 0.5	0.1 to 0.2	0.1 to 0.2	0.03 to 0.05	0.3 to 0.5	0.03 to 0.05	0.1 to 0.2	0.1 to 0.2
C=CC(=O)Nc1cc2c(Nc3ccc(OCc4ccnc(C)c4)c(Cl)c3)ncnc2cc1OCCN1CCOCC1 [compound 142]	> 1	0.1 to 0.2	0.5 to 1	0.3 to 0.5	> 1	0.3 to 0.5	0.1 to 0.2	0.5 to 1
C=CC(=O)Nc1cc2c(Nc3ccc(OCc4cccc(F)c4)c(Cl)c3)ncnc2cc1OCCN1CC(OC)C1 [compound 143]	0.1 to 0.2	0.05 to 0.1	0.2 to 0.3	0.03 to 0.05	0.1 to 0.2	0.03 to 0.05	0.05 to 0.1	0.2 to 0.3
C=CC(=O)Nc1cc2c(Nc3ccc(OCc4cccc(F)c4)c(Cl)c3)ncnc2cc1OCCCN1CC(OC)C1 [compound 144]	0.1 to 0.2	0.1 to 0.2	0.1 to 0.2	0.03 to 0.05	0.1 to 0.2	0.03 to 0.05	0.1 to 0.2	0.1 to 0.2
C=CC(=O)Nc1cc2c(Nc3cc(Cl)c(OCc4cccc(F)c4)cc3F)ncnc2cc1OCCN1CCN(C)CC1 [compound 145]	0.2 to 0.3	0.05 to 0.1	0.1 to 0.2	0.03 to 0.05	0.2 to 0.3	0.03 to 0.05	0.05 to 0.1	0.1 to 0.2
CC#CC(=O)Nc1cc2c(Nc3cc(Cl)c(OCc4cccc(F)c4)cc3F)ncnc2cc1OCCN1CCN(C)CC1 [compound 146, N-(4-((5-chloro-2-fluoro-4-((3-fluorobenzyl)oxy)phenyl)amino)-7-(2-(4-methylpiperazin-1-yl)ethoxy)quinazolin-6-yl)but-2-ynamide]	0.05 to 0.1	0.05 to 0.1	0.05 to 0.1	0.02 to 0.03	0.05 to 0.1	0.02 to 0.03	0.05 to 0.1	0.05 to 0.1
C=CC(=O)Nc1cc2c(Nc3cc(Cl)c(OCc4cccc(F)c4)cc3F)ncnc2cc1OCCN1CC2CCC(C1)O2 [compound 147]	0.2 to 0.3	0.05 to 0.1	0.5 to 1	0.05 to 0.1	0.2 to 0.3	0.05 to 0.1	0.05 to 0.1	0.5 to 1
CC#CC(=O)Nc1cc2c(Nc3cc(Cl)c(OCc4cccc(F)c4)cc3F)ncnc2cc1OCCN1CC2CCC(C1)O2 [compound 148, N-(7-(2-(8-oxa-3-azabicyclo[3.2.1]octan-3-yl)ethoxy)-4-((5-chloro-2-fluoro-4-((3-fluorobenzyl)oxy)phenyl)amino)quinazolin-6-yl)but-2-ynamide]	0.05 to 0.1	0.1 to 0.2	0.2 to 0.3	0.02 to 0.03	0.05 to 0.1	0.02 to 0.03	0.1 to 0.2	0.2 to 0.3
CC#CC(=O)Nc1cc2c(Nc3cc(Cl)c(OCc4cccc(F)c4)cc3F)ncnc2cc1OCCN1CCOCC1 [compound 149, N-(4-((5-chloro-2-fluoro-4-((3-fluorobenzyl)oxy)phenyl)amino)-7-(2-morpholinoethoxy)quinazolin-6-yl)but-2-ynamide]	0.03 to 0.05	0.05 to 0.1	0.1 to 0.2	0.01 to 0.02	0.03 to 0.05	0.01 to 0.02	0.05 to 0.1	0.1 to 0.2
CC#CC(=O)Nc1cc2c(Nc3cc(Cl)c(OCc4cccc(F)c4)cc3F)ncnc2cc1OCCCN1CCOCC1 [compound 150, N-(4-((5-chloro-2-fluoro-4-((3-fluorobenzyl)oxy)phenyl)amino)-7-(3-morpholinopropoxy)quinazolin-6-yl)but-2-ynamide]	0.03 to 0.05	0.05 to 0.1	0.2 to 0.3	0.01 to 0.02	0.03 to 0.05	0.01 to 0.02	0.05 to 0.1	0.2 to 0.3
CC#CC(=O)Nc1cc2c(Nc3cc(Cl)c(OCc4cccc(F)c4)cc3F)ncnc2cc1O[C@@H]1CCN(C)C1 [compound 151, (R)-N-(4-((5-chloro-2-fluoro-4-((3-fluorobenzyl)oxy)phenyl)amino)-7-((1-methylpyrrolidin-3-yl)oxy)quinazolin-6-yl)but-2-ynamide]	0.1 to 0.2	0.05 to 0.1	0.1 to 0.2	0.01 to 0.02	0.1 to 0.2	0.01 to 0.02	0.05 to 0.1	0.1 to 0.2
CC#CC(=O)Nc1cc2c(Nc3cc(Cl)c(OCc4cccc(F)c4)cc3F)ncnc2cc1OCCN1CC(OC)C1 [compound 152, N-(4-((5-chloro-2-fluoro-4-((3-fluorobenzyl)oxy)phenyl)amino)-7-(2-(3-methoxyazetidin-1-yl)ethoxy)quinazolin-6-yl)but-2-ynamide]	0.05 to 0.1	0.03 to 0.05	0.1 to 0.2	0.005 to 0.01	0.05 to 0.1	0.005 to 0.01	0.03 to 0.05	0.1 to 0.2
C=CC(=O)Nc1cc2c(Nc3ccc(OCc4cccc(F)n4)c(Cl)c3)ncnc2cc1OCCCN1CCOCC1 [compound 153]	0.05 to 0.1	0.03 to 0.05	0.5 to 1	0.01 to 0.02	0.05 to 0.1	0.01 to 0.02	0.03 to 0.05	0.5 to 1
C=CC(=O)Nc1cc2c(Nc3ccc(OCc4cccc(F)n4)c(Cl)c3)ncnc2cc1OCCN1CCOCC1 [compound 154]	0.1 to 0.2	0.03 to 0.05	0.5 to 1	0.03 to 0.05	0.1 to 0.2	0.03 to 0.05	0.03 to 0.05	0.5 to 1
C=CC(=O)Nc1cc2c(Nc3ccc(OCc4cccc(F)n4)c(Cl)c3)ncnc2cc1OCCCN1CC(OC)C1 [compound 155]	0.03 to 0.05	0.03 to 0.05	0.3 to 0.5	0.01 to 0.02	0.03 to 0.05	0.01 to 0.02	0.03 to 0.05	0.3 to 0.5
C=CC(=O)Nc1cc2c(Nc3ccc(OCc4cccc(F)n4)c(Cl)c3)ncnc2cc1OCCN1CC2CCC(C1)O2 [compound 156]	0.2 to 0.3	0.05 to 0.1	> 1	0.03 to 0.05	0.2 to 0.3	0.03 to 0.05	0.05 to 0.1	> 1
C=CC(=O)Nc1cc2c(Nc3ccc(OCc4cccc(F)n4)c(Cl)c3)ncnc2cc1OCCN1CC(OC)C1 [compound 157]	0.3 to 0.5	0.03 to 0.05	0.5 to 1	0.03 to 0.05	0.3 to 0.5	0.03 to 0.05	0.03 to 0.05	0.5 to 1
C=CC(=O)Nc1cc2c(Nc3ccc(OCc4cccc(F)n4)c(Cl)c3)ncnc2cc1OCCN1CCN(C)CC1 [compound 158]	0.1 to 0.2	0.03 to 0.05	0.1 to 0.2	0.03 to 0.05	0.1 to 0.2	0.03 to 0.05	0.03 to 0.05	0.1 to 0.2
C=CC(=O)Nc1cc2c(Nc3ccc(OCc4cccc(F)c4)c(Cl)c3)ncnc2cc1OCCCN1C[C@@H]2C[C@H]1CO2 [compound 159]	0.3 to 0.5	0.1 to 0.2	0.3 to 0.5	0.05 to 0.1	0.3 to 0.5	0.05 to 0.1	0.1 to 0.2	0.3 to 0.5
C=CC(=O)Nc1cc2c(Nc3ccc(OCc4cccc(F)c4)c(Cl)c3)ncnc2cc1OCCCN1C[C@H]2C[C@@H]1CO2 [compound 160]	0.3 to 0.5	0.1 to 0.2	0.3 to 0.5	0.1 to 0.2	0.3 to 0.5	0.1 to 0.2	0.1 to 0.2	0.3 to 0.5
